Laboratory results as given in ChEMBL document CHEMBL4665827, “Discovery of Small-Molecule Inhibitors of Receptor Activator of Nuclear Factor-κB Ligand with a Superior Therapeutic Index” (J Med Chem, 2020).
Calls of active or inactive are those of the source. The calls are words filed in the database; no cut-off is given here.

Assays:
[1] = Cytotoxicity against mouse BMMC assessed as reduction in cell viability measured after 48 hrs by MTT assay; format: cell-based; settings: mouse BMMC (bone marrow cells), read-out: LC50
[2] = molecular target: T1, Tumor necrosis factor ligand superfamily member 11 (Homo sapiens, UniProt O14788); assay: Binding affinity to GST-fused human RANKL extracellular domain (Lys159 to Asp317 residues) expressed in Escherichia coli BL21(DE3) pLysS by fluorescence spectrophotometric assay
T1 sequence (O14788 whole entry): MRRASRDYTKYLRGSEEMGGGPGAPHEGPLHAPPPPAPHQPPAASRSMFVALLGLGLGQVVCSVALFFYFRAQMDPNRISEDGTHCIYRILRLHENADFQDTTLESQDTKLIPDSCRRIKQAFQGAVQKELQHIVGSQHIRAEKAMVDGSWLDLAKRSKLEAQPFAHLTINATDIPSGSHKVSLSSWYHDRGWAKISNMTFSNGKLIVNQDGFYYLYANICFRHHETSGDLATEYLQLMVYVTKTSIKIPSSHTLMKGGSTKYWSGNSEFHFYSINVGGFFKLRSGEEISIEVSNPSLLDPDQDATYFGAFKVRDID

[3] = molecular target: T2, Tumor necrosis factor ligand superfamily member 11 (Homo sapiens) (UniProt O14788); assay: Inhibition of human RANKL-induced osteoclastogenesis in RANKL cultured mouse bone marrow cells assessed as reduction in RANKL/M-CSF-induced TRAP activity at 5 uM preincubated with RANKL for 1 hr followed by cell addition and subsequent media replenishment every 48 hrs for 4 days; format: cell-based; settings: time 4.0 day
T2 sequence (whole entry): T1 sequence (O14788 whole entry)

[4] = Therapeutic index, ratio of LC50 for mouse bone marrow cells to IC50 for Inhibition of human RANKL-induced osteoclastogenesis in RANKL cultured mouse bone marrow cells; format: toxicity; settings: read-out: Ratio LC50/IC50
[5] = molecular target: T2, Tumor necrosis factor ligand superfamily member 11 (Homo sapiens); assay: (§1) Inhibition of RANKL (unknown origin) in RANKL cultured mouse RAW264.7 cells assessed as reduction in RANKL/RANK-interaction mediated cFOS expression by measuring cFOS protein expression at 5 uM preincubated for 1 hr followed by cell culture addition and measured after 2 days by Western blot analysis relative to positive control (reference value: 1); format: cell-based; settings: time 49.0 hrs
[6] = molecular target: T2, Tumor necrosis factor ligand superfamily member 11 (Homo sapiens); assay: as §1, with “NFATc1” for “cFOS”; format: cell-based; settings: time 49.0 hrs
[7] = molecular target: T2, Tumor necrosis factor ligand superfamily member 11 (Homo sapiens); assay: as §1, with “2” for “5”; format: cell-based; settings: time 49.0 hrs
[8] = molecular target: T2, Tumor necrosis factor ligand superfamily member 11 (Homo sapiens); assay: as §1, with “NFATc1” for “cFOS”, “10” for “5”; format: cell-based; settings: time 49.0 hrs
[9] = molecular target: T2, Tumor necrosis factor ligand superfamily member 11 (Homo sapiens); assay: as §1, with “10” for “5”; format: cell-based; settings: time 49.0 hrs
[10] = molecular target: T2, Tumor necrosis factor ligand superfamily member 11 (Homo sapiens); assay: as §1, with “NFATc1” for “cFOS”, “2” for “5”; format: cell-based; settings: time 49.0 hrs
[11] = system: BMMC; assay: Cytotoxicity against mouse BMMC assessed as reduction in cell viability at 5 uM measured after 48 hrs by MTT assay; format: cell-based
[12] = molecular target: T2, Tumor necrosis factor ligand superfamily member 11 (Homo sapiens); assay: Inhibition of human RANKL-induced osteoclastogenesis in RANKL cultured mouse bone marrow cells assessed as reduction in RANKL/M-CSF-induced TRAP activity preincubated with RANKL for 1 hr followed by cell addition and subsequent media replenishment every 48 hrs for 4 days; format: cell-based; settings: time 4.0 day

## O=C(c1coc2ccccc2c1=O)N1CCN(C(=O)c2cn(S(=O)(=O)c3ccccc3)c3ccccc23)CC1
[1]
  CC50 at 48 h: > 20 µM
[2]; read-out: Kd
  Kd: 11 µM
[3]
  inhibition: Active

## O=C(c1coc2ccccc2c1=O)N1CCN(Cc2cn(-c3cccc(C(F)(F)F)c3)c3ccccc23)CC1
[1]
  CC50 at 48 h: > 20 µM
[2]; read-out: Kd
  Kd: 8.49 µM
[3]
  inhibition: Active

## CN(CCN(C)S(=O)(=O)c1cccc([N+](=O)[O-])c1)C(=O)c1cn(S(=O)(=O)c2cccc([N+](=O)[O-])c2)c2ccccc12
[1]
  CC50 at 48 h: 18.3 µM
[4]
  selectivity ratio: 9.5

## O=C(NCCNC(=O)c1cn(S(=O)(=O)c2ccccc2)c2ccccc12)c1ccc2ccccc2c1
[2]; read-out: Kd
  Kd: 3.55 µM
[3]
  inhibition: inactive

## O=C(c1cn(-c2cccc(C(F)(F)F)c2)c2ccccc12)N1CCN(C(=O)n2ccnc2)CC1
[1]
  CC50 at 48 h: < 20 µM
[2]; read-out: Kd
  Kd: 5.34 µM
[3]
  inhibition: Active

## O=C(c1cn(S(=O)(=O)c2cccc([N+](=O)[O-])c2)c2ccccc12)N1CCN(S(=O)(=O)c2ccccc2)CC1
[5]
  fold change (FC): 0.63
[1]
  CC50 at 48 h: 123 µM
[6]
  fold change (FC): 0.57
[7]
  fold change (FC): 0.91
[8]
  fold change (FC): 0.34
[9]
  fold change (FC): 0.56
[4]
  selectivity ratio: 84.8
[10]
  fold change (FC): 0.82

## Nc1cccc(-n2cc(C(=O)N3CCN(C(=O)C4COc5ccccc5C4=O)CC3)c3cc(N)ccc32)c1 (configuration not stated)
[2]
  Kd: Not Active
[3]
  inhibition: inactive

## CN(CCN(C)C(=O)c1cn(S(=O)(=O)c2ccccc2)c2ccccc12)C(=O)c1ccccc1
[2]; read-out: Kd
  Kd: > 15 µM
[3]
  inhibition: inactive

## O=C(c1ccc2ccccc2c1)N1CCN(C(=O)c2cn(-c3cccc(C(F)(F)F)c3)c3ccccc23)CC1
[2]
  Kd: Not Active
[3]
  inhibition: inactive

## O=C(c1ccc2ccccc2c1)N1CCN(C(=O)c2cn(S(=O)(=O)c3ccccc3)c3ccccc23)CC1
[2]
  Kd: Not Active
[3]
  inhibition: inactive

## O=C(c1ccc2ccccc2c1)N1CCN(Cc2cn(-c3cccc(C(F)(F)F)c3)c3ccccc23)CC1
[2]
  Kd: Not Active
[3]
  inhibition: inactive

## O=C(c1coc2ccccc2c1=O)N1CCN(Cc2cn(-c3cccc(C(F)(F)F)c3)c3ccc([N+](=O)[O-])cc23)CC1
[1]
  CC50 at 48 h: < 20 µM
[2]
  Kd: Not Active
[3]
  inhibition: 100%

## O=C(c1ccccc1F)N1CCN(C(=O)c2c[nH]c3ccc([N+](=O)[O-])cc23)CC1
[1]
  CC50 at 48 h: > 20 µM
[2]; read-out: Kd
  Kd: 12.8 µM
[3]
  inhibition: Active

## CN(CCN(C)C(=O)c1cn(S(=O)(=O)c2cccc(N)c2)c2ccccc12)C(=O)c1coc2ccccc2c1=O
[2]; read-out: Kd
  Kd: 22.3 µM
[3]
  inhibition: inactive

## O=C(NCCCNC(=O)c1cn(S(=O)(=O)c2ccccc2)c2ccccc12)c1coc2ccccc2c1=O
[2]
  Kd: Not Active
[3]
  inhibition: inactive

## CN(CCN(C)S(=O)(=O)c1ccc(C#N)cc1)C(=O)c1cn(S(=O)(=O)c2cccc([N+](=O)[O-])c2)c2ccccc12
[1]
  CC50 at 48 h: > 500 µM
[4]
  selectivity ratio: > 250

## O=C(NCCCNC(=O)c1cn(S(=O)(=O)c2ccccc2)c2ccccc12)c1ccccc1
[2]
  Kd: Not Active
[3]
  inhibition: inactive

## O=C(c1coc2ccccc2c1=O)N1CCN(C(=O)c2cn(-c3cccc(C(F)(F)F)c3)c3ccc([N+](=O)[O-])cc23)CC1
[2]
  Kd: Not Active
[3]
  inhibition: inactive

## Cc1ccc2c(=O)c(CN(C)CCN(C)Cc3cn(S(=O)(=O)c4ccccc4)c4ccccc34)coc2c1
[1]
  CC50 at 48 h: < 20 µM
[2]; read-out: Kd
  Kd: 4.9 µM
[3]
  inhibition: 100%

## O=C(c1cn(S(=O)(=O)c2cccc([N+](=O)[O-])c2)c2ccccc12)N1CCN(S(=O)(=O)c2cccc([N+](=O)[O-])c2)CC1
[1]
  CC50 at 48 h: 118 µM
[4]
  selectivity ratio: 18.5

## O=C(c1ccccc1)N1CCN(C(=O)c2cn(-c3cccc(C(F)(F)F)c3)c3ccccc23)CC1
[2]
  Kd: Not Active
[3]
  inhibition: inactive

## Cc1ccc2occ(CN3CCN(Cc4cn(-c5cccc(C(F)(F)F)c5)c5ccccc45)CC3)c(=O)c2c1
[2]; read-out: Kd
  Kd: > 11 µM
[3]
  inhibition: inactive

## O=C(c1coc2ccccc2c1=O)N1CCN(C(=O)c2cn(S(=O)(=O)c3cccc([N+](=O)[O-])c3)c3ccccc23)CC1
[1]
  CC50 at 48 h: < 20 µM
[2]
  Kd: Not Active
[3]
  inhibition: 100%

## Cc1ccc2occ(CN(C)CCN(C)Cc3cn(S(=O)(=O)c4ccccc4)c4ccccc34)c(=O)c2c1
[11]
  Activity: Toxic
[2]; read-out: Kd
  Kd: 6.62 µM

## Cc1cc2occ(C(=O)N3CCN(C(=O)c4cn(-c5cccc(C(F)(F)F)c5)c5ccccc45)CC3)c(=O)c2cc1C
[1]
  CC50 at 48 h: < 20 µM
[2]; read-out: Kd
  Kd: 4.6 µM
[3]
  inhibition: 100%

## CN(CCN(C)C(=O)c1cn(S(=O)(=O)c2cccc([N+](=O)[O-])c2)c2ccccc12)C(=O)c1coc2ccccc2c1=O
[12]
  inhibition: Dose-dependent effect
[1]
  CC50 at 48 h: 32.2 µM
[2]; read-out: Kd
  Kd: 4.6 µM
[4]
  selectivity ratio: 6.3
[3]
  inhibition: 100%

## CN(CCN(C)C(=O)n1ccnc1)C(=O)c1cn(S(=O)(=O)c2ccccc2)c2ccccc12
[2]
  Kd: Not Active
[3]
  inhibition: inactive

## Cc1cc2occ(CN3CCN(Cc4cn(-c5cccc(C(F)(F)F)c5)c5ccccc45)CC3)c(=O)c2cc1C
[1]
  CC50 at 48 h: < 20 µM
[2]; read-out: Kd
  Kd: > 10 µM
[3]
  inhibition: 100%

## CN(CCN(C)S(=O)(=O)c1ccccc1)C(=O)c1cn(S(=O)(=O)c2cccc([N+](=O)[O-])c2)c2ccccc12
[1]
  CC50 at 48 h: > 300 µM
[4]
  selectivity ratio: > 112

## O=C(c1cccs1)N1CCN(C(=O)c2c[nH]c3ccc([N+](=O)[O-])cc23)CC1
[2]; read-out: Kd
  Kd: 15.8 µM
[3]
  inhibition: inactive

## Nc1cccc(-n2cc(C(=O)N3CCN(C(=O)c4coc5ccccc5c4=O)CC3)c3cc(N)ccc32)c1
[1]
  CC50 at 48 h: > 20 µM
[2]; read-out: Kd
  Kd: 9.31 µM
[3]
  inhibition: Active

## N#Cc1ccc(S(=O)(=O)N2CCN(C(=O)c3cn(S(=O)(=O)c4cccc([N+](=O)[O-])c4)c4ccccc34)CC2)cc1
[1]
  CC50 at 48 h: 52.6 µM
[4]
  selectivity ratio: 10.4

## Nc1cccc(-n2cc(C(=O)N3CCN(C(=O)c4coc5ccccc5c4=O)CC3)c3ccccc32)c1
[2]; read-out: Kd
  Kd: 19.1 µM
[3]
  inhibition: inactive

## O=C(c1coc2ccccc2c1=O)N1CCN(C(=O)c2cn(-c3cccc([N+](=O)[O-])c3)c3ccccc23)CC1
[2]; read-out: Kd
  Kd: > 25 µM
[3]
  inhibition: inactive

## CN(CCN(C)C(=O)c1cn(-c2cccc(N)c2)c2ccccc12)C(=O)c1coc2ccccc2c1=O
[2]; read-out: Kd
  Kd: 17.6 µM
[3]
  inhibition: inactive

## CN(CCN(C)C(=O)c1cn(S(=O)(=O)c2ccccc2)c2ccccc12)C(=O)c1ccccc1F
[1]
  CC50 at 48 h: > 20 µM
[2]; read-out: Kd
  Kd: 12.5 µM
[3]
  inhibition: Active

## CN(CCN(C)C(=O)c1cn(-c2cccc(C(F)(F)F)c2)c2ccc([N+](=O)[O-])cc12)C(=O)c1coc2ccccc2c1=O
[1]
  CC50 at 48 h: < 20 µM
[2]; read-out: Kd
  Kd: 2.82 µM
[3]
  inhibition: 100%

## O=C(NCCCCNC(=O)c1cn(S(=O)(=O)c2ccccc2)c2ccccc12)c1ccc2ccccc2c1
[2]; read-out: Kd
  Kd: 18.4 µM
[3]
  inhibition: inactive

## O=C(c1ccccc1)N1CCN(Cc2cn(-c3cccc(C(F)(F)F)c3)c3ccccc23)CC1
[1]
  CC50 at 48 h: > 20 µM
[2]; read-out: Kd
  Kd: 18.6 µM
[3]
  inhibition: Active

## O=C(c1ccc2ccccc2c1)N1CCN(Cc2cn(-c3cccc(C(F)(F)F)c3)c3ccc([N+](=O)[O-])cc23)CC1
[1]
  CC50 at 48 h: > 20 µM
[2]
  Kd: Not Active
[3]
  inhibition: Active

## Nc1cccc(S(=O)(=O)n2cc(C(=O)N3CCN(C(=O)c4coc5ccccc5c4=O)CC3)c3ccccc32)c1
[2]
  Kd: Not Active
[3]
  inhibition: inactive

## Cc1cc2occ(CN(C)CCN(C)Cc3cn(S(=O)(=O)c4ccccc4)c4ccccc34)c(=O)c2cc1C
[11]
  Activity: Toxic
[2]; read-out: Kd
  Kd: 8.71 µM
